Assay results reported in publication PMC4503722, “Novel Phenotypic Outcomes Identified for a Public Collection of Approved Drugs from a Publicly Accessible Panel of Assays” (PLoS ONE, 2015).

Assays:
[1] = system: endothelial tube formation in co-cultures of ECFCs and ADSCs treated with VEGF; assay: cells; format: cell-based, human
DLD-1 = assay: cells; format: cell-based; settings: for Basal_Viability ATP DLD-1 IC50/EC50: assay number 23
SW480 = assay: cells; format: cell-based; settings: for Basal_Viability ATP SW480 IC50/EC50: assay number 24
HCT116 = assay: cells; format: cell-based; settings: basal; for Basal_Viability ATP HCT116 IC50/EC50: assay number 25
[2] = system: HCT116 cells treated with a GSK3β inhibitor; assay: cells; format: cell-based; settings: for GSK3b inh pretreated_Viability ATP HCT116 IC50/EC50: assay number 26, GSK3b inhibitor pretreated; for IC50/EC50, GSK3b inh pretreated_Viability ATP HCT116 (assay number 26): GSK3b inh pretreated
Colo320 = assay: cells; format: cell-based; settings: for Basal_Viability ATP Colo 320 IC50/EC50: assay number 27
HT-29 = assay: cells; format: cell-based; settings: for Basal_Viability ATP HT-29 IC50/EC50: assay number 28
RKO = assay: cells; format: cell-based; settings: for Basal_Viability ATP RKO IC50/EC50: assay number 29
SNU-C1 = assay: cells; format: cell-based; settings: for Basal_Viability ATP SNU-C1 IC50/EC50: assay number 30
[3] = system: ECFC/ADSC co-culture cell nuclei number

CCCCCCCCCCCCCCCCCC[N+](C)(C)CCC[Si](OC)(OC)OC.[Cl-] [NCGC00166112-02]
VEGF_ADSC\ECFC Angio CD31 TubeArea IC50/EC50 [1]: > 10 µM | Basal_Viability ATP DLD-1 IC50/EC50 (DLD-1; concentration response): > 20 µM | Basal_Viability ATP SW480 IC50/EC50 (SW480; concentration response): > 20 µM | Basal_Viability ATP HCT116 IC50/EC50 (HCT116; concentration response): > 20 µM | GSK3b inh pretreated_Viability ATP HCT116 IC50/EC50 ([2]; concentration response): > 20 µM | Basal_Viability ATP Colo 320 IC50/EC50 (Colo320; concentration response): > 20 µM | Basal_Viability ATP HT-29 IC50/EC50 (HT-29; concentration response): > 20 µM | Basal_Viability ATP RKO IC50/EC50 (RKO; concentration response): > 20 µM | Basal_Viability ATP SNU-C1 IC50/EC50 (SNU-C1; concentration response): > 20 µM | VEGF_ADSC\ECFC Angio Hoechst NucArea IC50/EC50 [3]: > 10 µM

ClC1=C(Cl)C2(Cl)C(CBr)CC1(Cl)C2(Cl)Cl (stereo not drawn) [NCGC00166203-02]
IC50/EC50, VEGF_ADSC\ECFC Angio CD31 TubeArea (assay number 2) [1]: > 10 µM | IC50/EC50, Basal_Viability ATP DLD-1 (assay number 23) (DLD-1; basal): > 20 µM | IC50/EC50, Basal_Viability ATP SW480 (assay number 24) (SW480; basal): > 20 µM | IC50/EC50, Basal_Viability ATP HCT116 (assay number 25) (HCT116): > 20 µM | IC50/EC50, GSK3b inh pretreated_Viability ATP HCT116 (assay number 26) [2]: > 20 µM | IC50/EC50, Basal_Viability ATP Colo 320 (assay number 27) (Colo320; basal): > 20 µM | IC50/EC50, Basal_Viability ATP HT-29 (assay number 28) (HT-29; basal): > 20 µM | IC50/EC50, Basal_Viability ATP RKO (assay number 29) (RKO; basal): > 20 µM | IC50/EC50, Basal_Viability ATP SNU-C1 (assay number 30) (SNU-C1; basal): > 20 µM | IC50/EC50, VEGF_ADSC\ECFC Angio Hoechst NucArea (assay number 3) [3]: 9.9697 µM

O=C(NC(=O)c1c(F)cccc1F)Nc1ccc(Cl)c(Oc2ncc(C(F)(F)F)cc2Cl)c1 [NCGC00166205-02]
VEGF_ADSC\ECFC Angio CD31 TubeArea IC50/EC50 [1]: > 10 µM | Basal_Viability ATP DLD-1 IC50/EC50 (DLD-1; concentration response): > 20 µM | Basal_Viability ATP SW480 IC50/EC50 (SW480; concentration response): > 20 µM | Basal_Viability ATP HCT116 IC50/EC50 (HCT116; concentration response): > 20 µM | GSK3b inh pretreated_Viability ATP HCT116 IC50/EC50 ([2]; concentration response): 10.6205 µM | Basal_Viability ATP Colo 320 IC50/EC50 (Colo320; concentration response): > 20 µM | Basal_Viability ATP HT-29 IC50/EC50 (HT-29; concentration response): > 20 µM | Basal_Viability ATP RKO IC50/EC50 (RKO; concentration response): 11.8144 µM | Basal_Viability ATP SNU-C1 IC50/EC50 (SNU-C1; concentration response): > 20 µM | VEGF_ADSC\ECFC Angio Hoechst NucArea IC50/EC50 [3]: > 10 µM

C[C@H](O)CN(C)C [NCGC00166221-02]
IC50/EC50, VEGF_ADSC\ECFC Angio CD31 TubeArea (assay number 2) [1]: > 10 µM | IC50/EC50, Basal_Viability ATP DLD-1 (assay number 23) (DLD-1; basal): > 20 µM | IC50/EC50, Basal_Viability ATP SW480 (assay number 24) (SW480; basal): > 20 µM | IC50/EC50, Basal_Viability ATP HCT116 (assay number 25) (HCT116): > 20 µM | IC50/EC50, GSK3b inh pretreated_Viability ATP HCT116 (assay number 26) [2]: > 20 µM | IC50/EC50, Basal_Viability ATP Colo 320 (assay number 27) (Colo320; basal): > 20 µM | IC50/EC50, Basal_Viability ATP HT-29 (assay number 28) (HT-29; basal): > 20 µM | IC50/EC50, Basal_Viability ATP RKO (assay number 29) (RKO; basal): > 20 µM | IC50/EC50, Basal_Viability ATP SNU-C1 (assay number 30) (SNU-C1; basal): > 20 µM | IC50/EC50, VEGF_ADSC\ECFC Angio Hoechst NucArea (assay number 3) [3]: > 10 µM

C=CCCCCCCCCC(=O)OC [NCGC00166231-02]
VEGF_ADSC\ECFC Angio CD31 TubeArea IC50/EC50 [1]: > 10 µM | Basal_Viability ATP DLD-1 IC50/EC50 (DLD-1; concentration response): > 20 µM | Basal_Viability ATP SW480 IC50/EC50 (SW480; concentration response): > 20 µM | Basal_Viability ATP HCT116 IC50/EC50 (HCT116; concentration response): > 20 µM | GSK3b inh pretreated_Viability ATP HCT116 IC50/EC50 ([2]; concentration response): > 20 µM | Basal_Viability ATP Colo 320 IC50/EC50 (Colo320; concentration response): > 20 µM | Basal_Viability ATP HT-29 IC50/EC50 (HT-29; concentration response): > 20 µM | Basal_Viability ATP RKO IC50/EC50 (RKO; concentration response): > 20 µM | Basal_Viability ATP SNU-C1 IC50/EC50 (SNU-C1; concentration response): > 20 µM | VEGF_ADSC\ECFC Angio Hoechst NucArea IC50/EC50 [3]: > 10 µM

Clc1ccc(C(Cn2ccnc2)OCc2ccsc2Cl)c(Cl)c1 (stereo not drawn) [NCGC00167430-04]
VEGF_ADSC\ECFC Angio CD31 TubeArea IC50/EC50 [1]: 4.9961 µM | Basal_Viability ATP DLD-1 IC50/EC50 (DLD-1; basal): > 20 µM | Basal_Viability ATP SW480 IC50/EC50 (SW480; basal): > 20 µM | Basal_Viability ATP HCT116 IC50/EC50 (HCT116): 4.0687 µM | GSK3b inh pretreated_Viability ATP HCT116 IC50/EC50 [2]: 2.843 µM | Basal_Viability ATP Colo 320 IC50/EC50 (Colo320; basal): 5.2288 µM | Basal_Viability ATP HT-29 IC50/EC50 (HT-29; basal): > 20 µM | Basal_Viability ATP RKO IC50/EC50 (RKO; basal): 5.2538 µM | Basal_Viability ATP SNU-C1 IC50/EC50 (SNU-C1; basal): 2.1843 µM | VEGF_ADSC\ECFC Angio Hoechst NucArea IC50/EC50 [3]: 9.466 µM

Cc1cccc(C)c1NC(=O)CC12CCCN1CCC2 [NCGC00167454-02]
VEGF_ADSC\ECFC Angio CD31 TubeArea IC50/EC50 [1]: > 10 µM | Basal_Viability ATP DLD-1 IC50/EC50 (DLD-1; basal): > 20 µM | Basal_Viability ATP SW480 IC50/EC50 (SW480; basal): > 20 µM | Basal_Viability ATP HCT116 IC50/EC50 (HCT116): > 20 µM | GSK3b inh pretreated_Viability ATP HCT116 IC50/EC50 [2]: > 20 µM | Basal_Viability ATP Colo 320 IC50/EC50 (Colo320; basal): > 20 µM | Basal_Viability ATP HT-29 IC50/EC50 (HT-29; basal): > 20 µM | Basal_Viability ATP RKO IC50/EC50 (RKO; basal): > 20 µM | Basal_Viability ATP SNU-C1 IC50/EC50 (SNU-C1; basal): > 20 µM | VEGF_ADSC\ECFC Angio Hoechst NucArea IC50/EC50 [3]: > 10 µM

CC(C)Cn1cnc2c1c(=O)n(C)c(=O)n2C [NCGC00168348-03]
VEGF_ADSC\ECFC Angio CD31 TubeArea IC50/EC50 [1]: > 10 µM | Basal_Viability ATP DLD-1 IC50/EC50 (DLD-1; basal): > 20 µM | Basal_Viability ATP SW480 IC50/EC50 (SW480; basal): > 20 µM | Basal_Viability ATP HCT116 IC50/EC50 (HCT116): > 20 µM | GSK3b inh pretreated_Viability ATP HCT116 IC50/EC50 [2]: > 20 µM | Basal_Viability ATP Colo 320 IC50/EC50 (Colo320; basal): > 20 µM | Basal_Viability ATP HT-29 IC50/EC50 (HT-29; basal): > 20 µM | Basal_Viability ATP RKO IC50/EC50 (RKO; basal): > 20 µM | Basal_Viability ATP SNU-C1 IC50/EC50 (SNU-C1; basal): > 20 µM | VEGF_ADSC\ECFC Angio Hoechst NucArea IC50/EC50 [3]: > 10 µM

CC(=O)N(CC(O)CN(C(C)=O)c1c(I)c(C(=O)NCC(O)CO)c(I)c(C(=O)NCC(O)CO)c1I)c1c(I)c(C(=O)NCC(O)CO)c(I)c(C(=O)NCC(O)CO)c1I (stereo not drawn) [NCGC00179408-03]
VEGF_ADSC\ECFC Angio CD31 TubeArea IC50/EC50 [1]: > 10 µM | Basal_Viability ATP DLD-1 IC50/EC50 (DLD-1; basal): > 20 µM | Basal_Viability ATP SW480 IC50/EC50 (SW480; basal): > 20 µM | Basal_Viability ATP HCT116 IC50/EC50 (HCT116): > 20 µM | GSK3b inh pretreated_Viability ATP HCT116 IC50/EC50 [2]: > 20 µM | Basal_Viability ATP Colo 320 IC50/EC50 (Colo320; basal): > 20 µM | Basal_Viability ATP HT-29 IC50/EC50 (HT-29; basal): > 20 µM | Basal_Viability ATP RKO IC50/EC50 (RKO; basal): > 20 µM | Basal_Viability ATP SNU-C1 IC50/EC50 (SNU-C1; basal): > 20 µM | VEGF_ADSC\ECFC Angio Hoechst NucArea IC50/EC50 [3]: > 10 µM
